The results in this text go back to US20060269924A1, “Modulation of telomere-initiated cell signaling” (TRUSTEES OF BOSTON UNIVERSITY, priority 2003, published 2006).

{P} = phosphate

Series [1] has as its system phospho-p53 serine 15, phospho-p95 serine 343. Kind of series: T-oligo response in fibroblasts with Mre11 siRNA knockdown, Western blot and densitometry. The class given is cell-based, human. The note with it: fibroblasts with significantly reduced MRE11 levels (Mre11 siRNA), 48 hours. On the procedure: Normal human neonatal fibroblasts were treated with either 10 pmoles Mre11 siRNA or 10 pmoles control (no homology found in expressed human sequences). Cultures dishes were approximately 60% confluent on the day of siRNA transfection. Transfections were carried out using Lipofectamine 2000 (Invitrogen, Carlsbad, Calif.) following the protocol supplied by the manufacturer. The transfection cocktail was applied to the cells for 5 hours and then replaced with fresh medium alone. The next day, the transfection protocol was repeated. The following day, duplicate cultures were treated with the T-oligo or with diluent alone as a negative control. Cells were then collected 48 hours later and the protein analyzed by Western blot using antibodies specific for phospho-p95 serine 343 (Cell Signaling Technology, Beverly, Mass.), Mre11 (GeneTex, San Antonio, Tex.), phosphor-p53 serine 15 (Cell Signaling Technology) and total p53 (Oncogene, San Diego, Calif.) (FIG. 9). Hela cell lysate was used as a positive control for Mre11. Normal fibroblasts exposed to 10 Gy IR or sham irradiated and collected after one hour served as positive controls for p53 and p95/Nbs1 phosphorylation. The autoradiographs were analyzed by densitometry and the values for the T-oligo samples are expressed relative to the values for the diluent-treated samples (FIG. 10 and FIG. 11).
(In general: Immunoblotting shows a protein as a band on a membrane.)

Series [2] concerns p53, E2F1 transcription factor. Kind of series: Western analysis of p53 and E2F1 in Jurkat cells. It counts as cell-based, human. The conditions noted are these: by 24 hours after addition.
The subject of the next series is R2F fibroblasts. Kind of series: SA-β-Gal staining, R2F fibroblasts. The class given is cell-based, human. The conditions noted are these: 40 μM, 1 week. On the procedure:
(§1) FIG. 12a: Immunoblot analysis of p53DD and cdk4^R24C expression. Cells were collected for protein analysis by western blot using 30 μg total protein and probed for total p53 and cdk4. Lanes 1, 2, 3 and 4 contain protein samples from R2F, R2F (p53DD), R2F (cdk4^R24C) and R2F (p53DD/cdk4^R24C) fibroblasts, respective. β-actin was used as a loading control. FIG. 12b: Contribution of p53 and pRb pathways to T-oligo-induced SA-β-Gal activity. R2F fibroblasts and derived transductants were treated with diluent or 40 μM T-oligo for one week and then assayed for SA-β-Gal activity. FIG. 12c: Quantitative analysis of SA-β-Gal positive cells. Cells expressing SA-β-Gal activity were counted and presented as percentage of total cells in the cultures. Averages and standard deviations were calculated from 3 representative fields from each of 3 independent experiments.
Cells were treated once with diluent alone, 40 μM T-oligo or 40 μM complementary oligo for 1 week without re-feeding. Cells were then fixed for 3-5 minutes in 2% formaldehyde/0.2% glutaraldehyde and incubated at 37° C. […]
(§2) Cells were treated with either diluent or 40 μM T-oligo for 1 week and then assessed for SA-β-Gal activity. […]

Series [3] deals with cdk4^R24C R2F fibroblasts. Kind of series: SA-β-Gal staining, cdk4^R24C R2F fibroblasts. It counts as cell-based, human. The note with it: 40 μM, 1 week. On the procedure: as §1
(§3) R2F newborn dermal fibroblasts and derived p53DD, […] and p53DD/cdk4^R24C transductants (a generous gift from Dr. James G. Rheinwald of Harvard Medical School) lack a functional p53 pathway, pRb pathway, and both pathways respectively.
(§4) Cells were treated once with diluent alone, 40 μM T-oligo or 40 μM complementary oligo for 1 week without re-feeding. […]
as §2

Another series relates to p53DD R2F fibroblasts. Kind of series: SA-β-Gal staining, p53DD R2F fibroblasts. It counts as cell-based, human. The note with it: 40 μM, 1 week. On the procedure: as §1, §3, §4, §2
The subject of series [4] is keratinocyte cell line (SSC12F). The experiment in a line: S-phase arrest by FACS in keratinocyte cell line. It counts as cell-based. The note with it: 48 hours, 11mer-1 alone (10 μM per FIG. 3B). On the procedure:
FIGS. 3A-3G are profiles showing the results of fluorescence activated cell sorting, for the following additions to the cells: FIG. 3A, diluent; FIG. 3B, 10 μM 11mer-1; FIG. 3C, 10 μM 11mer-1 and 1 μM 11mer-1-S; FIG. 3D, 10 μM 11mer-1 and 5 μM 11mer-1-S; FIG. 3E, 10 μM 11mer-1 and 10 μM 11mer-1-S; FIG. 3F, 20 μM 11mer-1-S; FIG. 3G, 10μM 11mer-1-S.
Forty-three percent of the cells were in the S phase, compared to 26% of the control, diluent-treated cells.

A further series concerns S91 mouse melanoma cells. The experiment in a line: Melanin content of S91 melanoma cells. It counts as cell-based. The conditions noted are these: 40 μM, 6 days. On the procedure:
Cultures of S91 mouse melanoma cells (100,000 cells/38 cm^2) were treated with 100 μM pTpT or phosphorothioate pTpT (pTspT) (FIG. 4) or 40 μM 11mer-1 or the phosphorothioate 11mer-1 (11mer-1-S) (FIG. 5) for 6 days and were then collected, counted and assayed for melanin content.
Duplicate cultures of S91 cells (100,000 cells/39 cm^2) were either sham-irradiated or irradiated with 5 mJ/cm^2 solar-simulated light from a 1 kW xenon arc solar-simulator (XMN 1000-21, Optical Radiation, Azuza, Calif.) metered at 285±5 nm using a research radiometer (model IL1700A, International Light, Newburyport, Mass.). Two sham-irradiated plates were then supplemented with 100 μM pTspT and two irradiated cultures were similarly treated with pTspT. After one week, cells were collected, counted and analyzed for melanin content by dissolving the cell pellets in 1 N NaOH and measuring the optical density at 475 nm. […] However, this response was blocked by the addition of pTspT (FIG. 6). In addition, the constitutive pigmentation of these cells was reduced by the pTspT in the sham-irradiated cultures, similar to the data presented in FIGS. 4 and 5.

Turning to “pGTTAGGGTTAG (DNA, 5' {P}, backbone not given here; listed as Homo sapiens) [Oligonucleotide 11mer-1]”, in series [1], the “phospho-p53 response to T-oligo” value is listed as “reduced” and the “phospho-p95/Nbs1 response to T-oligo” value is “absent”. Also, in series [2], the “level of the E2F1 transcription factor” value was “concomitant increase” and the “p53 level (Western analysis)” value is “increase”. The same substance gave an SA-β-Gal positive cells in the series with R2F fibroblasts of 65±7%. The SA-β-Gal positive cells in series [3] is 60±5%. The substance further gave an SA-β-Gal positive cells with p53DD R2F fibroblasts of 45±4%. The “cells in the S phase” value in series [4] is recorded as “Forty-three”. Moreover, the “melanogenesis (melanin content)” value with S91 mouse melanoma cells was “stimulated melanogenesis”.
